Test results from ChEMBL document CHEMBL1201862, “PubChem BioAssay data set” (2004).
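All cell lines were grown in 96-well plates and treated with compound for 48 hours. The concentration for 50% growth inhibition is given as GI50.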 Calls of active or inactive are those of the source. No stated cut-off is given here; in the data, active = GI50 up to about 1.1 µM and inactive = higher.

Experiments:
Assay in all cases: NCI-60 cell line screen, 48 h
Malme-3M = test system: Malme-3M
U-251 = test system: U-251
CAKI-1 = test system: CAKI-1
OVCAR-8 = test system: OVCAR-8
COLO 205 = test system: COLO 205
NCI-H226 = test system: NCI-H226
Hs-578T = test system: Hs-578T
BT-549 = test system: BT-549
HT-29 = test system: HT-29
786-0 = test system: 786-0
A498 = test system: A498
KM12 = test system: KM12
M14 = test system: M14
SF-539 = test system: SF-539
MDA-MB-435 = test system: MDA-MB-435
LOX IMVI = test system: LOX IMVI
DU-145 = test system: DU-145
SW-620 = test system: SW-620
IGROV-1 = test system: IGROV-1
SK-MEL-28 = test system: SK-MEL-28
SF-268 = test system: SF-268
RPMI-8226 = test system: RPMI-8226
EKVX = test system: EKVX
OVCAR-3 = test system: OVCAR-3
UO-31 = test system: UO-31
MCF7 = test system: MCF7
HCC 2998 = test system: HCC 2998
SF-295 = test system: SF-295
HCT-15 = test system: HCT-15
T47D = test system: T47D
SNB-19 = test system: SNB-19
SK-MEL-2 = test system: SK-MEL-2
SR = test system: SR
HOP-62 = test system: HOP-62
HOP-92 = test system: HOP-92
OVCAR-4 = test system: OVCAR-4
HCT-116 = test system: HCT-116
RXF 393 = test system: RXF 393
A549 = test system: A549
SK-MEL-5 = test system: SK-MEL-5
MDA-MB-231 = test system: MDA-MB-231
K562 = test system: K562
MDA-N = test system: MDA-N
ACHN = test system: ACHN
UACC-62 = test system: UACC-62
NCI/ADR-RES = test system: NCI/ADR-RES
CCRF-CEM = test system: CCRF-CEM
SK-OV-3 = test system: SK-OV-3
UACC-257 = test system: UACC-257
NCI-H460 = test system: NCI-H460
OVCAR-5 = test system: OVCAR-5
NCI-H23 = test system: NCI-H23
PC-3 = test system: PC-3
NCI-H522 = test system: NCI-H522
MOLT-4 = test system: MOLT-4
SNB-75 = test system: SNB-75
TK-10 = test system: TK-10
HL-60 = test system: HL-60
SN12C = test system: SN12C

## O=C1c2ccccc2-c2c1c1ccccc1c(=O)n2CCO
Malme-3M
  GI50: 26.5 µM (inactive)
U-251
  GI50: 8.61 µM (inactive)
CAKI-1
  GI50: 3.53 µM (inactive)
OVCAR-8
  GI50: 9.38 µM (inactive)
COLO 205
  GI50: 4.9 µM (inactive)
NCI-H226
  GI50: 6.84 µM (inactive)
Hs-578T
  GI50: 29.8 µM (inactive)
BT-549
  GI50: 18.5 µM (inactive)
HT-29
  GI50: 7.14 µM (inactive)
786-0
  GI50: 6.03 µM (inactive)
A498
  GI50: 35 µM (inactive)
KM12
  GI50: 6.38 µM (inactive)
M14
  GI50: > 100 µM (inactive)
SF-539
  GI50: 10.6 µM (inactive)
MDA-MB-435
  GI50: > 72.9 µM (inactive)
LOX IMVI
  GI50: 5.28 µM (inactive)
DU-145
  GI50: 13.5 µM (inactive)
SW-620
  GI50: 7.29 µM (inactive)
IGROV-1
  GI50: 20.5 µM (inactive)
SK-MEL-28
  GI50: > 76.6 µM (inactive)
SF-268
  GI50: 19.1 µM (inactive)
RPMI-8226
  GI50: > 26.9 µM (inactive)
EKVX
  GI50: 10 µM (inactive)
OVCAR-3
  GI50: 74 µM (inactive)
UO-31
  GI50: 4.06 µM (inactive)
MCF7
  GI50: 4.41 µM (inactive)
HCC 2998
  GI50: 24.8 µM (inactive)
SF-295
  GI50: 11.8 µM (inactive)
HCT-15
  GI50: 5.83 µM
T47D
  GI50: 23.6 µM (inactive)
SNB-19
  GI50: 6.1 µM (inactive)
SK-MEL-2
  GI50: 39.6 µM (inactive)
SR
  GI50: 2.24 µM (inactive)
HOP-62
  GI50: 5.4 µM (inactive)
HOP-92
  GI50: 29.5 µM (inactive)
OVCAR-4
  GI50: 33.2 µM (inactive)
HCT-116
  GI50: 4.83 µM (inactive)
RXF 393
  GI50: 32.1 µM (inactive)
A549
  GI50: 5.27 µM (inactive)
SK-MEL-5
  GI50: 8.81 µM (inactive)
MDA-MB-231
  GI50: 46 µM (inactive)
K562
  GI50: > 36 µM (inactive)
MDA-N
  GI50: 51.8 µM (inactive)
ACHN
  GI50: 2.17 µM (inactive)
UACC-62
  GI50: 11.5 µM (inactive)
NCI/ADR-RES
  GI50: 14.6 µM (inactive)
CCRF-CEM
  GI50: 3.49 µM (inactive)
SK-OV-3
  GI50: 30.8 µM (inactive)
UACC-257
  GI50: > 79.6 µM (inactive)
NCI-H460
  GI50: 1.82 µM (inactive)
OVCAR-5
  GI50: > 100 µM (inactive)
NCI-H23
  GI50: 14.1 µM (inactive)
PC-3
  GI50: 21.5 µM (inactive)
NCI-H522
  GI50: 24 µM (inactive)
MOLT-4
  GI50: 2.14 µM (inactive)
SNB-75
  GI50: 25.4 µM (inactive)
TK-10
  GI50: > 50.5 µM (inactive)
HL-60
  GI50: 2.4 µM (inactive)
SN12C
  GI50: 10.8 µM (inactive)

## O=C1/C(=N/CCc2cc(Br)c(O)c(Br)c2)C=C(O)c2cccnc21
Malme-3M
  GI50: 1.21 µM (inactive)
U-251
  GI50: 1.93 µM (inactive)
CAKI-1
  GI50: 5.04 µM (inactive)
OVCAR-8
  GI50: 4.38 µM (inactive)
COLO 205
  GI50: 1.75 µM (inactive)
NCI-H226
  GI50: 1.87 µM (inactive)
Hs-578T
  GI50: 1.49 µM (inactive)
BT-549
  GI50: 1.37 µM (inactive)
HT-29
  GI50: 2.6 µM (inactive)
786-0
  GI50: 2.22 µM (inactive)
A498
  GI50: 3.08 µM (inactive)
KM12
  GI50: 2.94 µM (inactive)
M14
  GI50: 1.31 µM (inactive)
SF-539
  GI50: 0.918 µM (active)
MDA-MB-435
  GI50: 0.344 µM (active)
LOX IMVI
  GI50: 0.634 µM (active)
DU-145
  GI50: 1.45 µM (inactive)
SW-620
  GI50: 2.17 µM (inactive)
IGROV-1
  GI50: 2.07 µM (inactive)
SK-MEL-28
  GI50: 1.78 µM (inactive)
SF-268
  GI50: 2.19 µM (inactive)
RPMI-8226
  GI50: 2.82 µM (inactive)
EKVX
  GI50: 8.47 µM (inactive)
OVCAR-3
  GI50: 1.59 µM (inactive)
UO-31
  GI50: 3.12 µM (inactive)
MCF7
  GI50: 1.61 µM (inactive)
HCC 2998
  GI50: 6.78 µM (inactive)
SF-295
  GI50: 1.2 µM (inactive)
HCT-15
  GI50: 2.36 µM
T47D
  GI50: 7.78 µM (inactive)
SNB-19
  GI50: 2.3 µM (inactive)
SK-MEL-2
  GI50: 1.52 µM (inactive)
SR
  GI50: 0.771 µM (active)
HOP-62
  GI50: 1.11 µM (active)
HOP-92
  GI50: 7.94 µM (inactive)
OVCAR-4
  GI50: 2.72 µM (inactive)
HCT-116
  GI50: 2.46 µM (inactive)
RXF 393
  GI50: 2.24 µM (inactive)
A549
  GI50: 2.1 µM (inactive)
SK-MEL-5
  GI50: 1.24 µM (inactive)
MDA-MB-231
  GI50: 7.35 µM (inactive)
K562
  GI50: 1.56 µM (inactive)
MDA-N
  GI50: 0.4 µM (active)
ACHN
  GI50: 2.68 µM (inactive)
UACC-62
  GI50: 1.51 µM (inactive)
NCI/ADR-RES
  GI50: 4.75 µM (inactive)
CCRF-CEM
  GI50: 5.24 µM (inactive)
SK-OV-3
  GI50: 7.26 µM (inactive)
UACC-257
  GI50: 1.37 µM (inactive)
NCI-H460
  GI50: 1.17 µM (inactive)
OVCAR-5
  GI50: 2.03 µM (inactive)
NCI-H23
  GI50: 0.502 µM (active)
PC-3
  GI50: 3.92 µM (inactive)
NCI-H522
  GI50: 1.74 µM (inactive)
MOLT-4
  GI50: 6.75 µM (inactive)
SNB-75
  GI50: 1.13 µM (inactive)
TK-10
  GI50: 3.33 µM (inactive)
HL-60
  GI50: 4.88 µM (inactive)
SN12C
  GI50: 1.35 µM (inactive)
